Structures can show the parent of a compound that is named as a salt.
Molecular target: T1, mGluR5 receptor (Sus scrofa, UniProt I3LUI7)
T1 construct: 450 μg of protein from brain homogenate with 5 nM ^3[H]-MPEP; from tissue; host or cells: pig brain halves without medulla, cerebellum and pons
Test: [3H]-MPEP mGluR5 receptor binding assay (pig brain homogenate)
Conditions: 5 nM [3H]-MPEP; for inhibition at 10 µM / % Inhibition of mGluR5 Receptor (pig) [^3H]-MPEP Bond at 10 μM: 10 μM compound; for inhibition at 10 µM: read-out: % Inhibition of mGluR5 Receptor (pig) [^3H]-MPEP Bond at 10 μM; for IC50: read-out: IC50 mGluR5 Receptor (pig) [^3H]-MPEP Bond
How it was run: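 Radioligand displacement of 5 nM [3H]-MPEP from pig brain homogenate (450 μg protein; medulla, cerebellum and pons removed) in 20 mM Hepes pH 8.0. Compounds were tested at 10 μM, incubated 60 min at room temperature, then filtered and counted by scintillation. Non-specific binding was defined with 10 μM MPEP.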

T1 sequence (I3LUI7 19-1212): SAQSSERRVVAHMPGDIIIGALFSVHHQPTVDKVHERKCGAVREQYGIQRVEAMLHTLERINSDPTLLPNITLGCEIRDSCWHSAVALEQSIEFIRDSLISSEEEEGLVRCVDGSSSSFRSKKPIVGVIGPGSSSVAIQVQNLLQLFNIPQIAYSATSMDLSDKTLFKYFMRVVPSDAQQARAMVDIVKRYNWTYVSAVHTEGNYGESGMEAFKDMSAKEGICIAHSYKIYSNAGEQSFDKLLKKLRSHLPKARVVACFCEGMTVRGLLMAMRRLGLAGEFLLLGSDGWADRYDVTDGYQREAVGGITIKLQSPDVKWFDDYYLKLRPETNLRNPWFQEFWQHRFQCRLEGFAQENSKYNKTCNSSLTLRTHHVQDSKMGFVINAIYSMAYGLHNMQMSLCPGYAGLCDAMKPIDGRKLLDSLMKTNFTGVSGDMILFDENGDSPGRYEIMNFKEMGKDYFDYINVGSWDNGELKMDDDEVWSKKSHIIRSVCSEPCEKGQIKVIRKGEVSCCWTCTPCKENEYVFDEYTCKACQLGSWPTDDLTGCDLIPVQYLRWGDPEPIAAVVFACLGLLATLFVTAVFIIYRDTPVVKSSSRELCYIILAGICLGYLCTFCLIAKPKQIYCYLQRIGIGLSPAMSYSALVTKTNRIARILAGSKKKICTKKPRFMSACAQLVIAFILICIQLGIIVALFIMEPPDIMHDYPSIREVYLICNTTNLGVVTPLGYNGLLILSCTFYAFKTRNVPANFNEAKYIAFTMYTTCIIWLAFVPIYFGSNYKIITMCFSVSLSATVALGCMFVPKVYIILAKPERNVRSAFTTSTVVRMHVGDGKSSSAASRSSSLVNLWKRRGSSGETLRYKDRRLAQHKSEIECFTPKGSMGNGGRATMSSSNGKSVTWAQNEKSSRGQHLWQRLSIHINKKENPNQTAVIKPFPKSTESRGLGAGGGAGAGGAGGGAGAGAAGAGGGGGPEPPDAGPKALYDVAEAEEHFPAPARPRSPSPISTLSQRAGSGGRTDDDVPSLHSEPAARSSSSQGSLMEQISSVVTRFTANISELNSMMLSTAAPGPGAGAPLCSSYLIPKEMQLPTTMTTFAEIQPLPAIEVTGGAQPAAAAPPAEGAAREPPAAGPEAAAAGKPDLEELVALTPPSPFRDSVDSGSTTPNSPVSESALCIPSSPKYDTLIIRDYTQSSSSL

| inhibition at 10 µM [%] | SMILES | also measured |
| --- | --- | --- |
| 86 | CC(C)(C)C(=O)N(Cc1cccc(-c2cc(F)c3ncnc(NC4CC4)c3c2)c1)C1CC1 [Example 724, N-cyclopropyl-N-(3-(4-(cyclopropylamino)-8-fluoroquinazolin-6-yl)benzyl)pivalamide] | – |
| 85 | Cc1ccc(C(=O)N(C)Cc2cccc(-c3ccc4ncnc(NC5CC5)c4c3)c2)cc1 [Example 175, N-[3-(4-cyclopropylamino-quinazolin-6-yl)-benzyl]-4,N-dimethyl-benzamide] | – |
| 52 | O=C(c1ccccn1)N(Cc1cccc(-c2ccc3ncnc(NCCc4ccccc4)c3c2)c1)C1CC1 [Example 370, N-cyclopropyl-N-(3-(4-(phenethylamino)quinazolin-6-yl)benzyl)picolinamide] | – |
| 93 | Cc1cc2ncnc(NC3CC3)c2cc1-c1cccc(CN(C(=O)c2cccc(F)c2)C2CC2)c1 [Example 652, N-cyclopropyl-N-(3-(4-(cyclopropylamino)-7-methylquinazolin-6-yl)benzyl)-3-fluorobenzamide] | – |
| 36 | Cc1nc(NC2CC2)c2cc(-c3ccc(F)c(CN(C(=O)c4ccncc4)C4CC4)c3)ccc2n1 [Example 608, N-cyclopropyl-N-(5-(4-(cyclopropylamino)-2-methylquinazolin-6-yl)-2-fluorobenzyl)isonicotinamide] | – |
| 86 | O=C(COc1ccccc1)N(Cc1cccc(-c2ccc3ncnc(NC4CC4)c3c2)c1)C1CC1 [Example 164, N-cyclopropyl-N-[3-(4-cyclopropylamino-quinazolin-6-yl)-benzyl]-2-phenoxy-acetamide] | – |
| 52 | Cc1cc2ncnc(NC3CC3)c2cc1-c1cccc(CN(C(=O)c2ccno2)C2CC2)c1 [Example 745, N-cyclopropyl-N-(3-(4-(cyclopropylamino)-7-methylquinazolin-6-yl)benzyl)isoxazole-5-carboxamide] | – |
| 90 | Cc1nc(C(=O)N(Cc2cccc(-c3cc(F)c4ncnc(NC5CC5)c4c3)c2)C2CC2)cs1 [Example 830, N-cyclopropyl-N-(3-(4-(cyclopropylamino)-8-fluoroquinazolin-6-yl)benzyl)-2-methylthiazole-4-carboxamide] | – |
| 89 | CC(C)(C)Nc1ncnc2ccc(-c3ccc(F)c(CN(C(=O)c4ccccc4C(F)(F)F)C4CC4)c3)cc12 [Example 814, N-(5-(4-(tert-butylamino)quinazolin-6-yl)-2-fluorobenzyl)-N-cyclopropyl-2-(trifluoromethyl)benzamide] | – |
| 39 | CN(C)CC(=O)N(Cc1cc(-c2ccc3ncnc(NC4CC4)c3c2)ccc1Cl)C1CC1 [Example 733, N-(2-chloro-5-(4-(cyclopropylamino)quinazolin-6-yl)benzyl)-N-cyclopropyl-2-(dimethylamino)acetamide] | – |
| 88 | COCC(=O)N(Cc1cc(-c2ccc3ncnc(NC4CC4)c3c2)ccc1Cl)C1CC1 [Example 801, N-(2-chloro-5-(4-(cyclopropylamino)quinazolin-6-yl)benzyl)-N-cyclopropyl-2-methoxyacetamide] | – |
| 76 | CNc1ncnc2ccc(-c3ccc(F)c(CN(C)S(=O)(=O)C(C)C)c3)cc12 [Example 578, N-(2-fluoro-5-(4-(methylamino)quinazolin-6-yl)benzyl)-N-methylpropane-2-sulfonamide] | – |
| 71 | O=C(C1CCCCC1)N(Cc1cc(-c2ccc3ncnc(NC4CC4)c3c2)ccc1F)C1CC1 [Example 452, N-cyclopropyl-N-(5-(4-(cyclopropylamino)quinazolin-6-yl)-2-fluorobenzyl)cyclohexane carboxamide] | – |
| 67 | Cc1cc2ncnc(NC3CC3)c2cc1-c1cccc(CN(C(=O)c2cc(Cl)cc(Cl)c2)C2CC2)c1 [Example 692, 3,5-dichloro-N-cyclopropyl-N-(3-(4-(cyclopropylamino)-7-methylquinazolin-6-yl)benzyl)benzamide] | – |
| 81 | O=C(c1cccs1)N(Cc1cccc(-c2cc(F)c3ncnc(NC4CC4)c3c2)c1)C1CC1 [Example 685, N-cyclopropyl-N-(3-(4-(cyclopropylamino)-8-fluoroquinazolin-6-yl)benzyl)thiophene-2-carboxamide] | – |
| – | CCCCC(=O)N(Cc1cc(-c2ccc3ncnc(NC(C)(C)C)c3c2)ccc1F)C1CC1 [Example 856, N-(5-(4-(tert-butylamino)quinazolin-6-yl)-2-fluorobenzyl)-N-cyclopropyl pentanamide] | % Inhibition of mGluR5 Receptor (pig) [^3H]-MPEP Bond at 10 μM: 89% |
| 89 | Cc1cc2ncnc(NC3CC3)c2cc1-c1cccc(CN(C(=O)c2cccs2)C2CC2)c1 [Example 698, N-cyclopropyl-N-(3-(4-(cyclopropylamino)-7-methylquinazolin-6-yl)benzyl)thiophene-2-carboxamide] | – |

| inhibition at 10 µM [%] | SMILES | also measured |
| --- | --- | --- |
| 70 | CNc1ncnc2ccc(-c3ccc(F)c(CN(C)C(=O)c4c(F)c(F)c(F)c(F)c4F)c3)cc12 [Example 585, 2,3,4,5,6-pentafluoro-N-(2-fluoro-5-(4-(methylamino)quinazolin-6-yl)benzyl)-N-methylbenzamide] | – |
| 84 | O=C(c1cnccn1)N(Cc1cccc(-c2ccc3ncnc(NC4CC4)c3c2)c1)C1CC1 [Example 162, pyrazine-2-carboxylic acid cyclopropyl-[3-(4-cyclopropylamino-quinazolin-6-yl)-benzyl]-amide] | – |
| 53 | O=S(=O)(c1cccc2cccnc12)N(Cc1cc(-c2ccc3ncnc(NC4CC4)c3c2)ccc1F)C1CC1 [Example 415, N-cyclopropyl-N-(5-(4-(cyclopropylamino)quinazolin-6-yl)-2-fluorobenzyl)quinoline-8-sulfonamide] | – |
| – | O=S(=O)(c1ccc(C(F)(F)F)cc1)N(Cc1cccc(-c2ccc3ncnc(NC4CC4)c3c2)c1)C1CC1 [Example 226, N-cyclopropyl-N-(3-(4-(cyclopropylamino)quinazolin-6-yl)benzyl)-4-(trifluoromethyl)benzole sulfonamide] | IC50: 2640 nM |
| – | O=C(C1CCCCC1)N(Cc1cccc(-c2ccc3ncnc(NC4CC4)c3c2)c1)C1CC1 [Example 265, N-cyclopropyl-N-(3-(4-(cyclopropylamino)quinazolin-6-yl)benzyl)cyclohexane carboxamide] | IC50: 1890 nM |
| 97 | O=C(c1ccc(C(F)(F)F)cc1F)N(Cc1cccc(-c2ccc3ncnc(NC4CC4)c3c2)c1)C1CC1 [Example 177, N-cyclopropyl-N-[3-(4-cyclopropylamino-quinazolin-6-yl)-benzyl]-2-fluoro-4-trifluoromethyl-benzamide] | – |
| – | CC(C)(C)CNc1ncnc2ccc(-c3cccc(CN4C(=O)CCC4=O)c3)cc12 [Example 866, 1-(3-(4-(neopentylamino)quinazolin-6-yl)benzyl)pyrrolidine-2,5-dione] | IC50: 90 nM |
| 53 | O=C(COc1ccccc1)N(Cc1cccc(-c2ccc3ncnc(N4CCCC4)c3c2)c1)C1CC1 [Example 145, N-cyclopropyl-2-phenoxy-N-[3-(4-pyrrolidin-1-yl-quinazolin-6-yl)-benzyl]-acetamide] | – |
| 58 | c1cc(CNCc2ccco2)cc(-c2ccc3ncnc(NC4CC4)c3c2)c1 [Example 312, N-cyclopropyl-6-(3-((furan-2-ylmethylamino)methyl)phenyl)quinazoline-4-amine dihydrochloride] | – |
| 36 | O=C(Cc1ccccc1)N(Cc1cc(-c2ccc3ncnc(NC4CC4)c3c2)ccn1)C1CC1 [Example 841, N-cyclopropyl-N-((4-(4-(cyclopropylamino)quinazolin-6-yl)pyridin-2-yl)methyl)-2-phenylacetamide] | – |
| 75 | Cc1nc(NC2CC2)c2cc(-c3ccc(F)c(CN(C(=O)c4csc(C)n4)C4CC4)c3)ccc2n1 [Example 624, N-cyclopropyl-N-(5-(4-(cyclopropylamino)-2-methylquinazolin-6-yl)-2-fluorobenzyl)-2-methylthiazole-4-carboxamide] | – |
| – | Cc1cc2ncnc(NC3CC3)c2cc1-c1cccc(CN(C2CC2)S(=O)(=O)c2ccc(Cl)cc2Cl)c1 [Example 667, 2,4-dichloro-N-cyclopropyl-N-(3-(4-(cyclopropylamino)-7-methylquinazolin-6-yl)benzyl)benzole sulfonamide] | % Inhibition of mGluR5 Receptor (pig) [^3H]-MPEP Bond at 10 μM: 40% |
| 69 | O=S(=O)(c1cccc2cccnc12)N(Cc1cc(-c2ccc3ncnc(NC4CC4)c3c2)ccc1Cl)C1CC1 [Example 742, N-(2-chloro-5-(4-(cyclopropylamino)quinazolin-6-yl)benzyl)-N-cyclopropylquinoline-8-sulfonamide] | – |
| 0 | CC(C)(C)OC(=O)NCc1cccc(-c2ccc3ncnc(NC4CC4)c3c2)c1 [Example 295, tert-butyl 3-(4-(cyclopropylamino)quinazolin-6-yl)benzylcarbamate] | – |
| – | O=S(=O)(c1ccc(Cl)cc1Cl)N(Cc1cc(-c2ccc3ncnc(NC4CC4)c3c2)ccn1)C1CC1 [Example 796, 2,4-dichloro-N-cyclopropyl-N-((4-(4-(cyclopropylamino)quinazolin-6-yl)pyridin-2-yl)methyl)benzole sulfonamide] | % Inhibition of mGluR5 Receptor (pig) [^3H]-MPEP Bond at 10 μM: 78% |
| 39 | CC(=O)OCN(Cc1cccc(-c2ccc3ncnc(NC4CC4)c3c2)c1)C(C)=O [Example 203, {acetyl-[3-(4-cyclopropylamino-quinazolin-6-yl)-benzyl]-amino}-methyl acetate] | – |
| 41 | CS(=O)(=O)N(Cc1cncc(-c2ccc3ncnc(NC4CC4)c3c2)c1)C1CC1 [Example 234, N-cyclopropyl-N-[5-(4-cyclopropylamino-quinazolin-6-yl)-pyridin-3-yl-methyl]-methane sulfonamide] | – |
